Test results: patent publication US20020183384A1, “Methods of treating nuclear factor-kappa B mediated diseases and disorders” (priority 2001, published 2002)
Counter-ions that a name gives are not always drawn.

The compounds below were run on NF-κB mediated transcription (assay: NF-κB driven β-lactamase reporter assay in ECV-304 NF-κB.βlaZ cells (AURORA CCF2 fluorescence)). Settings: 10 μM compound; ECV-304 NF-κB.βlaZ cells stimulated with 10 ng/mL TNF-α or 100 pg/mL IL-1β, 6 hours at 37° C.; inhibition of maximum blue/green ratio.
Type: cell-based, human
Description: Introduction: Described below is an in vitro, cell-based, high throughput screening assay that reliably identifies inhibitors of NF-κB mediated transcription.
The assay takes advantage of AURORA (Aurora Bioscience Corporation, La Jolla, Calif.) fluorescence technology. Endothelial cell vein-304 (ECV-304) cells, an endothelial-like immortalized cell type, may be stably transfected with a plasmid vector containing the cDNA for the enzyme β-lactamase (under the control of a basal promoter, Stratagene pNFκB-luc vector) and 5 copies of an human immunodeficiency virus-1 (HIV-1) NF-κB binding site. ECV-304 cells are described by Takahashi K. et al. in Spontaneous Transformation and Immobilization of Human Endothelial Cells, In Vitro Cell. Dev. Biol. 1990;25:265-274. Activation of NF-κB in ECV-304 by cytokines such as TNF-α or interleuken-1 beta (IL-1β) results in the production of β-lactamase, which cleaves a green fluorescent substrate (excitation/emission wavelengths 395 nm1530 nm) to yield a blue fluorescent product (excitation/emission wavelengths 395 nm/460 nm). Visually, the uncleaved green fluorescent substrate is sequestered intracellularly and emits green fluorescence, while the cleaved product emits blue fluorescence. Fluorescence is quantitated spectrophotometrically, and the spectral intensity of blue fluorescence versus green fluorescence can be used to calculate the degree of activation of NF-κB.
The assay was performed as outlined here and described in detail below. ECV-304 cells permanently transfected with the NF-κB driven β-lactamase gene (ECV-304 NF-κB.βlaZ) were plated in clear-bottom, black 96-well plates (1.25×10^4 cells/well) in media-199 (M-199) media containing 2% fetal bovine serum (FBS). […] The AURORA fluorescent disclosing reagent was then added. After one additional hour, the plates were read in a fluorometer at the blue 395 nm/460 nm (excitation/emission) and green 395 nm/530 nm wavelengths. Then the blue/green emission ratio was calculated. […] An IC50 for said sulfonylaminocarbonyl derivative was determined from a dose-response curve. This assay was designed to be optionally run in either high or low throughput screening modes.
Five copies of the HIV-1 NF-κB binding site (5′-[…]-3′) along with a TATA box were inserted into the EcorRI/BamHI sites of plasmid pMCRBlaZ to create plasmid p5×KBBlaZ, which procedure is illustrated in Scheme 1 below. [formula]
Cells were selected for antibiotic resistance with Zeocin for approximately 2 weeks. After the stable population had been expanded to a significant number of cells, it was stimulated with IL-1β and stained with AURORA CCF2 dye, a membrane permeant, intracellularly-trapped, fluorescent substrate. Cells that fluoresced blue (indicating a positive response of the NF-κB/β-lactamase reporter to stimulation by IL-1β) in the stimulated/stained population were then sorted by flow cytometry into a pool. The pool was expanded and stained with CCF2, and then the cells that fluoresced green from this unstimulated population (indicating a low background of the NF-κB/β-lactamase reporter construct) were cloned by flow cytometry after adding 1 cell per well in 96-well plates. Clones were allowed to expand. Each cloned cell line was then examined for fold stimulation after stimulation with IL-1β using a CCF2 reporter assay, and these stimulated cells were compared to unstimulated cells.
Cells: ECV-304 NF-κB β-Lactamase clone 1E8
Inhibitors: Prepared stock solutions of aminosulfonyl derivatives at 10 mM concentration in DMSO;
c) Added 10 μL of B into appropriate well in assay plate (the final concentration of drug is 10 μM), and […]

**Q.** How did the “Percent Inhibition at 10 μM” value turn out when CC(C)c1cccc(C(C)C)c1OS(=O)(=O)NC(=O)NCC1(c2ccc(N(C)C)cc2)CCCC1 [Example 217, Sulfamic acid, [[[[1-[4-(dimethylamino)phenyl]cyclopenty]methyl]-amino]carbonyl]-2,6-bis(1-methylethyl)phenyl ester] was run?
**A.** Its value is 37.08%.

**Q.** How did the “Percent Inhibition at 10 μM” value turn out when Cc1cc(C(C)(C)C)c(OC(=O)NS(=O)(=O)NC(c2ccccc2)c2ccccc2)c(C(C)(C)C)c1 [Example 3, Carbamic acid, [[(diphenylmethyl)amino]sulfonyl]-, 2,6-bis(l,1-dimethylethyl)-4-methylphenyl ester] was run?
**A.** The value was 79.34%.

**Q.** CC(C)c1cccc(C(C)C)c1OC(=O)NS(=O)(=O)Nc1nc2ccccc2[nH]1 [Example 16, Carbamic acid, [(1H-benzimdazol-2-ylamino)sulfonyl]-, 2,6-bis(1-methylethyl)-phenyl ester] was tested. Which “Percent Inhibition at 10 μM” value did it give?
**A.** The value was less than 10%.

Same assay, conditions: Homo sapiens, ECV-304, 6 h, 10 μM compound; ECV-304 NF-κB.βlaZ cells stimulated with 10 ng/mL TNF-α or 100 pg/mL IL-1β, 6 hours at 37° C.; inhibition of maximum blue/green ratio; read-out: Percent Inhibition at 10 μM

**Q.** With CCCCCCCCN(CCCCCCCC)S(=O)(=O)NC(=O)Nc1c(C(C)C)cccc1C(C)C [Example 23, N-[2,6-bis(1-methylethyl)phenyl]-N′-[(dioctylamino)sulfonyl]-urea] as the compound, how does the inhibition at 10 µM read?
**A.** Its inhibition at 10 µM is 38.7%.

**Q.** Which inhibition at 10 µM does the source give for CC(C)c1cccc(C(C)C)c1NC(=O)NS(=O)(=O)N(C(C)C)C(C)C [Example 20, N-[2,6-bis(1-methylethyl)phenyl]-N′-[[bis(1-methylethyl)amino]-sulfonyl]-urea] here?
**A.** Its inhibition at 10 µM is less than 10%.

**Q.** With CCCCCCCCCCCCCCCCS(=O)(=O)NC(=O)Nc1c(C(C)C)cccc1C(C)C [Example 238, N-[2,6-bis(1-methylethyl)phenyl]-N′-(hexadecylsulfonyl)-urea] as the compound, how does the inhibition at 10 µM read?
**A.** The inhibition at 10 µM was 12%.

**Q.** How did the inhibition at 10 µM turn out when CCCCCCCCCCCCCCCCCCOS(=O)(=O)NC(=O)Nc1c(C(C)C)cccc1C(C)C [Example 60, Sulfamic acid, [[[2,6-bis(1-methylethyl)phenyl]amino]carbonyl]-, octadecyl ester] was run?
**A.** Its inhibition at 10 µM is less than 10%.

**Q.** CC(C)c1cccc(C(C)C)c1NC(=O)NS(=O)(=O)NCC(c1ccccc1)c1ccccc1 [Example 9, Urea, N-[2,6-bis(1-methylethyl)phenyl]-N′-[[(2,2-diphenylethyl)amino]-sulfonyl]-] was tested. Which inhibition at 10 µM did it give?
**A.** The inhibition at 10 µM was 33.1%.

**Q.** For CC(C)c1cccc(C(C)C)c1OS(=O)(=O)NC(=O)CC1CCCCC1 [Example 155, Cyclohexylacetyl-sulfamic acid 2,6-diisopropyl-phenyl ester], which inhibition at 10 µM is on record?
**A.** Its inhibition at 10 µM is less than 10%.

**Q.** For CC(C)c1cccc(C(C)C)c1NC(=O)NS(=O)(=O)NC1c2ccccc2-c2ccccc21 [Example 19, N-[2,6-bis(1-methylethyl)phenyl]-N′-[(9H-fluoren-9-ylamino)-sulfonyl]-urea], which inhibition at 10 µM is on record?
**A.** Its inhibition at 10 µM is 20.2%.

**Q.** How did the inhibition at 10 µM turn out when CC(C)c1cc(C(C)C)c(CC(=O)NS(=O)(=O)Oc2c(C(C)C)cc(F)cc2C(C)C)c(C(C)C)c1 [Example 185, [(2,4,6-Triisopropyl-phenyl)-acetyl]-sulfamic acid 4-fluoro-2,6-diisopropyl-phenyl ester] was run?
**A.** Its inhibition at 10 µM is 73.9%.

**Q.** CC(C)c1cccc(C(C)C)c1OS(=O)(=O)NC(=O)C(C)(c1ccccc1)c1ccccc1 [Example 171, (2,2-Diphenyl-propionyl)-sulfamic acid 2,6-diisopropyl-phenyl ester] was tested. Which inhibition at 10 µM did it give?
**A.** The inhibition at 10 µM was 62.2%.

**Q.** With CC(C)c1cccc(C(C)C)c1OS(=O)(=O)NC(=O)C(c1ccc(Cl)cc1)c1ccc(Cl)cc1 [Example 172, [Bis-(4-chloro-phenyl)-acetyl]-sulfamic acid 2,6-diisopropyl-phenyl ester] as the compound, how does the inhibition at 10 µM read?
**A.** Its inhibition at 10 µM is 86.9%.

**Q.** Which inhibition at 10 µM does the source give for CCCCCCC(C)OC(=O)NS(=O)(=O)Oc1c(C(C)C)cccc1C(C)C (stereo not shown) [Example 109, Carbamic acid, [[2,6-bis(1-methylethyl)phenoxy]sulfonyl]-, 1-methylheptyl ester] here?
**A.** The inhibition at 10 µM was 51.4%.

**Q.** CCCCCCCCC(c1ccccc1)S(=O)(=O)NC(=O)Nc1c(C(C)C)cccc1C(C)C (stereo not shown) [Example 243, N-[2,6-bis(1-methylethyl)phenyl]-N′-(1-phenyl-1-nonylsulfonyl)urea] was tested. Which inhibition at 10 µM did it give?
**A.** The inhibition at 10 µM was less than 10%.

**Q.** CC(C)c1cc(C(C)C)c(CC(=O)NS(=O)(=O)Oc2c(C(C)C)cc(C(N)=O)cc2C(C)C)c(C(C)C)c1 [Example 234, [(2,4,6-Triisopropyl-phenyl)-acetyl]-sulfamic acid 4-carbamoyl-2,6-diisopropyl-phenyl ester] was tested. Which inhibition at 10 µM did it give?
**A.** Its inhibition at 10 µM is 76.7%.

**Q.** With CC(C)c1cccc(C(C)C)c1OS(=O)(=O)NC(=O)CCc1ccccc1 [Example 176, (3-Phenyl-propionyl)-sulfamic acid 2,6-diisopropyl-phenyl ester] as the compound, how does the inhibition at 10 µM read?
**A.** The inhibition at 10 µM was less than 10%.

**Q.** How did the inhibition at 10 µM turn out when CC(C)c1cccc(C(C)C)c1OS(=O)(=O)NC(=O)C1(c2ccc([N+](=O)[O-])cc2)CCCC1 [Example 213, [1-(4-Nitro-phenyl)-cyclopentanecarbonyl]-sulfamic acid 2,6-diisopropyl-phenyl ester] was run?
**A.** The inhibition at 10 µM was 19.7%.

**Q.** How did the inhibition at 10 µM turn out when CC(C)c1cccc(C(C)C)c1NC(=O)NS(=O)(=O)N(C(C)C)C1CCCCC1 [Example 63, Urea, N-[2,6-bis(1-methylethyl)phenyl]-N′-[[cyclohexyl(1-methylethyl)amino]-sulfonyl]-] was run?
**A.** Its inhibition at 10 µM is 23%.

Same assay, conditions: Homo sapiens; 10 μM compound; ECV-304 NF-κB.βlaZ cells stimulated with 10 ng/mL TNF-α or 100 pg/mL IL-1β, 6 hours at 37° C.; inhibition of maximum blue/green ratio; read-out: Percent Inhibition at 10 μM

**Q.** For Cc1cccc(C(C)(C)C)c1OC(=O)NS(=O)(=O)Oc1c(C(C)C)cccc1C(C)C [Example 137, Carbamic acid, [[2,6-bis(1-methylethyl)phenoxy]sulfonyl]-, 2-(1,1-dimethylethyl)-6-methylphenyl ester], which inhibition at 10 µM is on record?
**A.** Its inhibition at 10 µM is less than 10%.

**Q.** With CCCCCCOS(=O)(=O)NC(=O)Oc1c(C(C)(C)C)cc(C)cc1C(C)(C)C [Example 49, Carbamic acid, [(hexyloxy)sulfonyl]-, 2,6-bis(1,1-dimethylethyl)-4-methylphenyl ester] as the compound, how does the inhibition at 10 µM read?
**A.** The inhibition at 10 µM was 22.9%.

**Q.** How did the inhibition at 10 µM turn out when CCCCCCCCCCCCOS(=O)(=O)NC(=O)Oc1c(C(C)(C)C)cc(C)cc1C(C)(C)C [Example 51, Carbamic acid, [(dodecyloxy)sulfonyl]-, 2,6-bis(1,1-dimethylethyl)-4-methylphenyl ester] was run?
**A.** The inhibition at 10 µM was 47.2%.

**Q.** CC(C)c1cccc(C(C)C)c1OS(=O)(=O)NC(=O)Oc1c(F)cccc1F [Example 153, Carbamic acid, [[2,6-bis(1-methylethyl)phenoxy]sulfonyl]-, 2,6-difluorophenyl ester] was tested. Which inhibition at 10 µM did it give?
**A.** The inhibition at 10 µM was less than 10%.

**Q.** With CCCCCCCCCCCCCCCCOS(=O)(=O)NC(=O)Oc1c(C(C)C)cccc1C(C)C [Example 107, Carbamic acid, [(hexadecyloxy)sulfonyl]-, 2,6-bis(1-methylethyl)phenyl ester] as the compound, how does the inhibition at 10 µM read?
**A.** The inhibition at 10 µM was less than 10%.

**Q.** How did the inhibition at 10 µM turn out when CC(C)c1cccc(C(C)C)c1OC(=O)NS(=O)(=O)N(Cc1ccccc1)Cc1ccccc1 [Example 25, Carbamic acid, [[bis(phenylmethyl)amino]sulfonyl]-, 2,6-bis(1-methylethyl)-phenyl ester] was run?
**A.** Its inhibition at 10 µM is 33.2%.

**Q.** With CC(C)c1cccc(C(C)C)c1OC(=O)NS(=O)(=O)Oc1ccccc1 [Example 97, Carbamic acid, (phenoxysulfonyl)-, 2,6-bis(1-methylethyl)phenyl ester] as the compound, how does the inhibition at 10 µM read?
**A.** Its inhibition at 10 µM is less than 10%.

**Q.** Which inhibition at 10 µM does the source give for CCCCCCCCN(C)S(=O)(=O)NC(=O)Oc1c(C(C)(C)C)cc(C)cc1C(C)(C)C [Example 43, Carbamic acid, [(methyloctylamino)sulfonyl]-, 2,6-bis(1,1-dimethylethyl)-4-methylphenyl ester] here?
**A.** Its inhibition at 10 µM is 70.2%.

**Q.** How did the inhibition at 10 µM turn out when Cc1cc(C(C)(C)C)c(OC(=O)NS(=O)(=O)N(C)CCc2ccccn2)c(C(C)(C)C)c1 [Example 42, Carbamic acid, [[methyl[2-(2-pyridinyl)ethyl]amino]sulfonyl]-, 2,6-bis(1,1-dimethylethyl)-4-methylphenyl ester, monohydrochloride] was run?
**A.** Its inhibition at 10 µM is less than 10%.
